According to US20250188082A1, “Use of Hypoxanthine Compound In Preparation of Drug For Treating Pulmonary Fibrosis” (Sichuan Yiasuo Pharmaceutical Technology Co., Ltd., priority 2022, published 2025):

Columns and labels:
Assay type in all cases: in vivo, C57BL/6 mice
[1] = system: mycoplasma-induced pulmonary fibrosis model (MPFH strain); test: Mycoplasma-induced pulmonary fibrosis model; conditions: 120 mg/kg/d intragastric, 14 days; for Leucocyte / Lymphocyte / Neutrophil: MPFH mycoplasma + bleomycin, once a day, from two weeks after model; for Ashcroft scores: mycoplasma + bleomycin, lung tissue HE
Text: Experimental method: an in-vivo mycoplasma-induced pulmonary fibrosis model was established: C57BL/6 mice (with weights being 22-25 g) were randomly and evenly divided into a plurality of groups, including blank control group, model group, Nintedanib positive control group, hypoxanthine analogue A group, hypoxanthine analogue B group, hypoxanthine analogue C group, compound 1 group, compound 2 group . . . compound 12 group, with 9 mice in each group. Before a model was established, the mice were anesthetized with diethyl ether. In addition to that the mice in blank control group with instilled with 100 μL of normal saline nasally, the mice in other groups with slowly instilled with an equal volume of a MPFH strain solution (containing 1×10^7 mL^−1 MPFH strain) to the nasal cavity, for consecutive 3 days, and inhaled the MPFH strain solution into bronchi. After instillation with mycoplasmas through tracheas, the mice received 5 mg/kg bleomycin through tracheas to induce their pulmonary fibrosis. After the model was established for two weeks, the mice in each group were intragastrically administrated for intervention for consecutive 14 days; the mice in blank control group and model group intragastrically received an equal dosage of normal saline as those in drug groups; the mice in Nintedanib positive control group received Nintedanib (120 mg/kg); the mice in hypoxanthine analogue A group, hypoxanthine analogue B group and hypoxanthine analogue C group respectively received hypoxanthine analogue A (120 mg/kg/d), hypoxanthine analogue B (120 mg/kg/d) and hypoxanthine analogue C (120 mg/kg/d); and the mice in compound 1 group, compound 2 group . . . compound 12 group respectively received compound 1 (120 mg/kg/d), compound 2 (120 mg/kg/d) . . . compound 12 (120 mg/kg/d) prepared in example 1. The mice were administrated once a day to be treated for consecutive 14 days. The mice were observed every day, and their weights and death conditions were recorded. On the last day of administration, the mice were sacrificed; and blood was taken from eyeballs and kept at −80° C. for detecting blood routine indexes. Meanwhile, lungs were lavaged with normal saline and separated to collect lavage fluids for detecting counts and classes of leucocytes; and lung tissues were taken for HE straining and Ashcroft scoring on the extent of pulmonary fibrosis.

[2] = system: novel coronavirus-induced pulmonary fibrosis model (COVID-19 novel coronavirus strains); test: Novel coronavirus-induced pulmonary fibrosis model; conditions: 120 mg/kg/d intragastric, 14 days; for Ashcroft scores: novel coronavirus + bleomycin, lung tissue HE; for IL-1β / IL-6 / NF-κB / TNF-α: serum, COVID-19 novel coronavirus + bleomycin, from two weeks after model
Text: (§1) Experimental method: an in-vivo novel coronavirus-induced pulmonary fibrosis model was established: C57BL/6 mice (with weights being 22-25 g) were randomly and evenly divided into a plurality of groups, including blank control group, model group, Nintedanib positive control group, hypoxanthine analogue A group, hypoxanthine analogue B group, hypoxanthine analogue C group, compound 1 group, a compound 2 group . . . compound 12 group, with 9 mice in each group. On Day 1, the mice in blank control group were instilled with normal saline nasally, and the mice in other groups were all infected with COVID-19 novel coronavirus strains (30 μL) through nasal instillation. On Day 2, the mice received 5 mg/kg bleomycin through tracheas to induce their pulmonary fibrosis. After the model was established for two weeks, the mice in each group were intragastrically administrated for intervention for consecutive 14 days; the mice in blank control group and model group intragastrically received the same dosage of normal saline as those in drug groups; the mice in Nintedanib positive control group received Nintedanib (120 mg/kg); the mice in hypoxanthine analogue A group, hypoxanthine analogue B group and hypoxanthine analogue C group respectively received hypoxanthine analogue A (120 mg/kg/d), hypoxanthine analogue B (120 mg/kg/d) and hypoxanthine analogue C (120 mg/kg/d); and the mice in compound 1 group, compound 2 group . . . compound 12 group respectively received compound 1 (120 mg/kg/d), compound 2 (120 mg/kg/d) . . . compound 12 (120 mg/kg/d) prepared in example 1. After administration for consecutive 14 days, the mice were observed every day, and their weights and death conditions were recorded. After administration, blood was taken from eyeballs for immediately detecting the expression levels of NF-κB, TNF-α, IL-1 and IL-6 in serum, and lung tissues were taken for HE detection and Ashcroft scoring.

[3] = system: influenza A virus-induced pulmonary fibrosis model (FM1 strain of influenza A (H1N1) virus); test: Influenza A virus-induced pulmonary fibrosis model; conditions: 120 mg/kg/d intragastric, 14 days; for Ashcroft scores: influenza A virus + bleomycin, lung tissue HE; for IL-1β / IL-6 / NF-κB / TNF-α: serum, influenza A (H1N1) FM1 + bleomycin, from two weeks after model
Text: as §1, with “an in-vivo influenza A virus-induced pulmonary fibrosis” for “an in-vivo novel coronavirus-induced pulmonary fibrosis”, “1 group, compound 2” for “1 group, a compound 2”, “infected with a FM1 strain of an influenza A (H1N1) virus 30 (μL) through nasal” for “infected with COVID-19 novel coronavirus strains (30 μL) through nasal”, “dosage of the normal saline” for “dosage of normal saline”

| SMILES | Leucocyte [1] | Lymphocyte [1] | Neutrophil [1] | Ashcroft scores [1] | Ashcroft scores [2] | IL-1β [2] | IL-6 [2] | NF-κB [2] | TNF-α [2] | Ashcroft scores [3] | IL-1β [3] | IL-6 [3] | NF-κB [3] | TNF-α [3] | further results |
| --- | --- | --- | --- | --- | --- | --- | --- | --- | --- | --- | --- | --- | --- | --- | --- |
| CCC(=O)Oc1ncnc2c1ncn2C(C)C [Compound 12] | 6.12 10^9/L | 74.46 10^9/L | 21.68 10^9/L | 1.12 | 1.18 | 38.9 pg/mL | 66.8 pg/mL | 27.3 pg/mL | 68.4 pg/mL | 1.31 | 29.9 pg/mL | 64.7 pg/mL | 28.1 pg/mL | 90.8 pg/mL |  |
| CCCOc1ncnc2c1ncn2C(C)C [Compound 9] | 6.79 10^9/L | 73.19 10^9/L | 22.06 10^9/L | 1.38 | 1.34 | 39.6 pg/mL | 69.1 pg/mL | 22.9 pg/mL | 68.8 pg/mL | 1.33 | 28.4 pg/mL | 65.8 pg/mL | 27.1 pg/mL | 91.1 pg/mL |  |
| CCOc1ncnc2c1ncn2C(C)C [Compound 8] | 7.26 10^9/L | 72.52 10^9/L | 23.62 10^9/L | 1.26 | 1.24 | 38.4 pg/mL | 68.2 pg/mL | 23.4 pg/mL | 66.7 pg/mL | 1.28 | 28.6 pg/mL | 66.0 pg/mL | 26.8 pg/mL | 89.9 pg/mL |  |
| CC(C)Oc1ncnc2c1N(C(C)C)CN2C(C)C [Compound 10] | 6.18 10^9/L | 72.54 10^9/L | 21.11 10^9/L | 1.45 | 1.67 | 38.1 pg/mL | 67.5 pg/mL | 26.5 pg/mL | 68.9 pg/mL | 1.30 | 29.3 pg/mL | 64.9 pg/mL | 27.7 pg/mL | 89.6 pg/mL |  |
| CC(C)n1cnc2c(=O)[nH]cnc21 [Compound 2] | 6.42 10^9/L | 72.69 10^9/L | 21.93 10^9/L | 1.20 | 1.12 | 35.1 pg/mL | 66.0 pg/mL | 23.5 pg/mL | 64.8 pg/mL | 1.25 | 27.1 pg/mL | 62.7 pg/mL | 25.5 pg/mL | 87.3 pg/mL |  |
| COc1ncnc2c1ncn2C(C)C [Hypoxanthine analogue C, reference compound] |  |  |  |  |  |  |  |  |  |  |  |  |  |  | Leucocyte ([1]; 120 mg/kg/day): 120.98 10^9/L; Lymphocyte ([1]; 120 mg/kg/day): 571.34 10^9/L; Neutrophil ([1]; 120 mg/kg/day): 238.07 10^9/L; Ashcroft scores ([1]; 120 mg/kg/day): 6.41; Ashcroft scores ([2]; 120 mg/kg/day): 6.71; IL-1β ([2]; 120 mg/kg/day): 572.7 pg/mL; IL-6 ([2]; 120 mg/kg/day): 543.7 pg/mL; NF-κB ([2]; 120 mg/kg/day): 739.2 pg/mL; TNF-α ([2]; 120 mg/kg/day): 542.4 pg/mL; Ashcroft scores ([3]; 120 mg/kg/day): 6.09; IL-1β ([3]; 120 mg/kg/day): 338.1 pg/mL; IL-6 ([3]; 120 mg/kg/day): 450.0 pg/mL; NF-κB ([3]; 120 mg/kg/day): 782.1 pg/mL; TNF-α ([3]; 120 mg/kg/day): 333.1 pg/mL |
| CC(C)n1cnc2nc[nH]c(=O)c21 [Compound 6] | 6.05 10^9/L | 71.57 10^9/L | 22.72 10^9/L | 1.17 | 1.34 | 38.7 pg/mL | 67.1 pg/mL | 21.2 pg/mL | 68.3 pg/mL | 1.26 | 28.5 pg/mL | 66.1 pg/mL | 27.8 pg/mL | 90.3 pg/mL |  |
| CC(C)Oc1ncnc2c1ncn2C(C)C [Compound 3] | 6.83 10^9/L | 72.33 10^9/L | 22.12 10^9/L | 0.96 | 1.19 | 36.3 pg/mL | 65.3 pg/mL | 24.7 pg/mL | 63.5 pg/mL | 1.18 | 26.3 pg/mL | 62.9 pg/mL | 24.3 pg/mL | 86.1 pg/mL |  |
| COc1ncnc2c1ncn2C(C)C [Compound 7] | 7.15 10^9/L | 73.29 10^9/L | 21.45 10^9/L | 1.25 | 1.15 | 39.9 pg/mL | 66.4 pg/mL | 24.6 pg/mL | 67.5 pg/mL | 1.28 | 29.0 pg/mL | 65.3 pg/mL | 26.4 pg/mL | 91.2 pg/mL |  |
| CC(C)Oc1ncnc2ncn(C(C)C)c12 [Compound 4] | 6.79 10^9/L | 73.37 10^9/L | 22.54 10^9/L | 1.05 | 1.50 | 37.2 pg/mL | 64.5 pg/mL | 25.2 pg/mL | 65.9 pg/mL | 1.29 | 29.6 pg/mL | 65.1 pg/mL | 27.4 pg/mL | 89.8 pg/mL |  |
